The record followed here is patent US20230346969A1, “INTERMEDIATE FOR PREPARING ANTIBODY-DRUG CONJUGATE (ADC), PREPARATION METHOD THEREFOR, AND USE THEREOF” (priority 2020, published 2023).

Some results are limits rather than exact numbers.

The target in data set [1] is Human trophoblast cell surface antigen 2 (Trop-2), on tumor cell lines (human) (UniProt P09758). Description: flow cytometry, 5 ug/mL hRS7 + PE anti-human IgG; cell line printed 'CPAC-1' (pancreas; probably CFPAC-1).
Data set [2] has the same target. As to the kind of experiment: flow cytometry, 5 ug/mL hRS7 + PE anti-human IgG; cell line CFPAC-1 (pancreas).
Data set [3] in a line: Adverse effects and weight loss of mice treated in the efficacy models. The format is in vivo, BALB/c nu/nu mice. Particulars: hRS7-VK-MMAE 3 mg/kg; hRS7-VK-SN38 3 or 10 mg/kg; PTX alone. From the text: (§1) Five-week-old female athymic BALB/c nu/nu mice were purchased from Charles River Company (Shanghai, China), and mice were randomly divided into 5-6 mice/group. Animal handling and procedures were approved and performed in accordance with the requirements of the Institutional Animal Care and Use Committee (IACUC) of Shanghai Institute of Materia Medica, Chinese Academy of Sciences. All models were inoculated subcutaneously on the side of mice. BXPC-3, HCC1806 and NCIH1688 cells were established by injecting and homogenizing 5 × 10^6 cells in Matrigel matrix. COLO205 cells were established by injecting and suspending 1 × 10^7 cells in Matrigel matrix. After the tumor volume reached about 200 mm^3, the tumor-bearing mice were randomly divided into treatment groups and a control group according to the tumor volume. Each drug was administered intraperitoneally. Mice were injected at doses of 3 or 10 mg/kg (10 mL/kg). Tumor volume was defined as length × ½ × width × width. The percentage of inhibition was calculated by the following formula: (1-average tumor volume of the treatment group/average tumor volume of the control group)×100%. Toxicity of the different treatment groups was assessed by monitoring weight loss.

For data set [4], the system named is mixture of Trop-2-positive tumor cells BXPC-3 and Trop-2-negative tumor cells NCIH1688. Description: Bystander effect: transplanted tumor from mixture of BXPC-3 and NCIH1688 cells. The format is in vivo, BALB/c-nu/nu mice. Particulars: 3 mg/kg, transplanted tumors heterogeneously expressing Trop-2.
Source text: as §1, with “Mice were injected at doses of 3 or 10 mg/kg (10 mL/kg). Tumor volume was defined as length × ½ × width × width.” left out
(§2) A mixture of Trop-2-positive tumor cells BXPC-3 and Trop-2-negative tumor cells NCIH1688 or NCIH1688 cells alone were inoculated into BALB/c-nu/nu mice (FIG. 1e, right panel), and the “bystander effect” of hRS7-VK-PTX was detected in a mouse transplanted tumor model.

Data set [5] relates to NCIH1688 cells. Description: Transplanted tumor from NCIH1688 cells alone (not expressing Trop-2). Particulars: hRS7-VK-PTX 10 mg/kg, hRS7-VK-MMAE 3 mg/kg. Format: in vivo, BALB/c-nu/nu mice.
Source text: as §1, with “Mice were injected at doses of 3 or 10 mg/kg (10 mL/kg). Tumor volume was defined as length × ½ × width × width.” left out
as §2

Data set [6] has as its system SK-MES-1. As to the kind of experiment: Cell viability assay (CCK-8). Format: cell-based. To be noted: ADCs; CCK-8, 96 hours; cell 'SK-WSS-7' [sic], Lung; read-out: IC50 (95% Cl). On the procedure:
(§3) Cell viability was determined using Cell Counting Kit 8 (CCK-8). Cells were seeded into 96-well plates at 3000-10000 cells/well. After incubation overnight, drugs were added at different concentrations. Plates were incubated in a 5% CO2, 37° C. humidified chamber for 96 hours. CCK8 reagent was added thereto and the plates were placed back to the incubator until the absorbance at 450 nm of untreated control cells was greater than 1.0. Growth inhibition was measured as the percent growth relative to untreated cells. Dose response curve was generated from the mean values of two or three tests, and IC50 values were calculated using Prism GraphPad software.
(§4) The anti-tumor efficacy of different payloads on different tumor cell lines was detected by CCK-8, and the results are shown in FIG. 5.

The test system of data set [7] is MDA-MB-468. As to the kind of experiment: Cell viability assay (CCK-8). Format: cell-based. To be noted: ADCs; CCK-8, 96 hours; SRM-M9-409, Mammary; read-out: IC50 (95% Cl). On the procedure: as §3, §4
The test system of data set [8] is HT29. As to the kind of experiment: Cell viability assay (CCK-8). The format is cell-based. To be noted: ADCs; CCK-8, 96 hours; cell '3128' [sic], Colon; read-out: IC50 (95% Cl). As for the experimental part:
as §3, §4

Data set [9] deals with Capan-1. Description: Cell viability assay (CCK-8). The format is cell-based. To be noted: ADCs; CCK-8, 96 hours; Cxoo-1 [sic], Pancreas; read-out: IC50 (95% Cl). On the procedure: as §3, §4
In data set [10] the test system is MDA-MB-231. Description: Cell viability assay (CCK-8). The format is cell-based. To be noted: ADCs; CCK-8, 96 hours; cell 'SRM-K9-231' [sic], Mamary; read-out: IC50 (95% Cl). On the procedure:
as §3, §4

The test system of data set [11] is SCLC-21H. Description: Cell viability assay (CCK-8). The format is cell-based. To be noted: ADCs; CCK-8, 96 hours; SRM-C-21H; read-out: IC50 (95% Cl). As for the experimental part:
as §3, §4

Data set [12] has as its system BXPC-3. As to the kind of experiment: Cell viability assay (CCK-8). Format: cell-based. To be noted: ADCs; CCK-8, 96 hours; cell RMCA [sic], Pancreas; read-out: IC50 (95% Cl). As for the experimental part: as §3, §4
The test system of data set [13] is HCC1806. Description: Cell viability assay (CCK-8). Format: cell-based. Particulars: ADCs; CCK-8, 96 hours; 'HOC1906' [sic], Mamary; read-out: IC50 (95% Cl). As for the experimental part:
as §3, §4

Data set [14] relates to NCIH2452. Description: Cell viability assay (CCK-8). To be noted: ADCs; CCK-8, 96 hours; cell 'HOC2401' [sic], Lung; read-out: IC50 (95% Cl). Format: cell-based. As for the experimental part:
as §3, §4

The test system of data set [15] is NCI-H1688. As to the kind of experiment: Cell viability assay (CCK-8). The format is cell-based. To be noted: ADCs; CCK-8, 96 hours; cell 'HCl-11685' [sic], Lung; read-out: IC50 (95% Cl). As for the experimental part:
as §3, §4

Data set [16] has as its system CFPAC-1. As to the kind of experiment: Cell viability assay (CCK-8). The format is cell-based. Particulars: ADCs; CCK-8, 96 hours; cell CPAC-1 [sic], Pancreas; read-out: IC50 (95% Cl). On the procedure: as §3, §4
Data set [17] relates to SKBR3. Description: Cell viability assay (CCK-8). Format: cell-based. To be noted: ADCs; CCK-8, 96 hours; 'SKERS' [sic], Mammary; read-out: IC50 (95% Cl). As for the experimental part:
as §3, §4

Data set [18] relates to COLO205. As to the kind of experiment: Cell viability assay (CCK-8). The format is cell-based. Particulars: ADCs; CCK-8, 96 hours; cell printed 'COXC28', Colon; read-out: IC50 (95% Cl). As for the experimental part: as §3, §4
Data set [19] can be described thus: Dose tolerability, single intravenous dose acute toxicity. The format is in vivo. Particulars: single intravenous dose 60 mg/kg, BALB/c mice. As for the experimental part: Dose tolerability assay was performed in BALB/c mice (3 mice per dose). The drug was given in a single intravenous dose. The injection doses of hRS7-VK-PTX were 60, 80 and 100 mg/kg, and the injection doses of hRS7-VK-MMAE were 60 and 80 mg/kg, respectively. Toxicity was assessed by observing mouse behavior, weight loss and survival. The weight change rate (%) was calculated as: (body weight - body weight before treatment)/(body weight before treatment) × 100%.
The safety of relatively high doses of hRS7-VK-PTX in BALB/c mice was studied by an acute toxicity experiment with single intravenous administration in mice.

UniProt P09758, sequence (P09758 27-323): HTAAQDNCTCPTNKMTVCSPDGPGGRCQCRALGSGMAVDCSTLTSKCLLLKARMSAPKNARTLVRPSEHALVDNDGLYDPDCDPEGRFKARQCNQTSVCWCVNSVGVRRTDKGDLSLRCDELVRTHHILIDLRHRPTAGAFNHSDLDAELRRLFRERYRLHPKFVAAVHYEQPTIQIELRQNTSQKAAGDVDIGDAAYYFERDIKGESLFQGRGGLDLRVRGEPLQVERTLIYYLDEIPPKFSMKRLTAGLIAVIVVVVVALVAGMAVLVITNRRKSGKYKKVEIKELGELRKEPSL

With Humanized Trop-2 antibody hRS7, the MFI in data set [1] was 3840 MFI; in [2], 35400 MFI.

Usually IC50 stands for the concentration at which inhibition is half-maximal. In the case of hRS7-VK-MMAE, the “adverse effects or weight loss in treated mice, relative to hRS7-VK-PTX (none)” value in data set [3] was “stark contrast”. In addition, in [4], the “tumor growth inhibition index (TGI)” value came out at 91.7%. For the same substance, the “killing effect on transplanted tumors not expressing Trop-2” value in data set [5] is on record as “had a killing effect”. For the same substance, the 50% inhibitory concentration (IC50) in [6] was greater than 325 nM; in data set [7], 0.0645 nM; in data set [8], roughly 250 nM; in [9], greater than 300 nM; in [10], greater than 300 nM; in [11], 0.0324 nM. For the same substance, the half-inhibitory concentration (IC50) is 0.0124 nM in data set [12]; 0.0174 nM in data set [13]; roughly 1.21 nM in data set [14]; roughly 3.76 nM in [15]; greater than 300 nM in data set [16]; roughly 2.24 nM in data set [17]. For the same substance, the 50% inhibitory concentration (IC50) in [18] is greater than 300 nM. Also, the adverse reactions result in [19] is “severe adverse reactions”. Besides, the body weight loss entry in data set [19] is on record as “more than 15%”.
